Experimental data published in patent US20260200919A1, “SUBSTITUTED AMINOPYRIDINE COMPOUNDS AND METHODS OF TREATING DISEASE USING SAME” (Atavistik Bio, Inc., priority 2023, published 2026).

Key:
[1] = target: T1, human recombinant kinase full-length AKT1 E17K (Homo sapiens, UniProt P31749, E17K); test: AKT1 E17K kinase assay (TR-FRET, Lance); assay type: biochemical; conditions: 0.6 nM AKT1 E17K, 50 nM Ulight-CREBtide, either 50 μM ATP or 2 mM ATP (not specified which), 60 min at RT
T1 construct: Purified human recombinant kinase full-length AKT1 E17K was expressed in insect cells; made in house; host or cells: insect cells
T1 sequence (P31749 whole entry E17K): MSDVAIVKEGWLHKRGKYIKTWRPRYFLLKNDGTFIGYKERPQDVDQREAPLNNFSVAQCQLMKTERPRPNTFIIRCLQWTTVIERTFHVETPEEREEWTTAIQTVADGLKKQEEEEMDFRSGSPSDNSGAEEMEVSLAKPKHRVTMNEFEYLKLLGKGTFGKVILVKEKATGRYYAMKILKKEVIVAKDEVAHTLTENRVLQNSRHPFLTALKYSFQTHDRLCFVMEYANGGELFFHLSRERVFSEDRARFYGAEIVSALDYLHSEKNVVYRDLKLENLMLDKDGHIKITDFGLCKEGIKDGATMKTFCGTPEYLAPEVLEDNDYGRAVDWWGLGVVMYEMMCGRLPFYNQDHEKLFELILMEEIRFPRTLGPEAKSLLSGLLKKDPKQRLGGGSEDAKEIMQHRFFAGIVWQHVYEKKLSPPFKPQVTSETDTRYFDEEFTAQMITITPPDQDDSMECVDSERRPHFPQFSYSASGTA
Method in brief: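 Full-length human AKT1 E17K (insect cell-expressed, PDPK1-activated; 0.6 nM) with 50 nM ULight-CREBtide in HEPES pH 7.5 with MgCl2 and DTT. ATP at 50 μM or 2 mM, 1% DMSO, 10-point dose response, 60 min at RT.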

[2] = target: T2, human recombinant kinase full-length wildtype AKT1 (Homo sapiens, UniProt P31749); test: AKT1 kinase assay (wildtype, TR-FRET, Lance); assay type: biochemical; conditions: 0.6 nM wildtype AKT1, 50 nM Ulight-CREBtide, either 50 μM ATP or 2 mM ATP (not specified which), 60 min at RT
T2 construct: Purified human recombinant kinase full-length wildtype AKT1 was expressed in insect cells; made in house; host or cells: insect cells
T2 sequence (P31749 whole entry): as the sequence (P31749 whole entry E17K) above, with K17E counted along it
Method in brief: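 Insect-cell-expressed AKT1, activated in vitro by PDPK1, was used at 0.6 nM with 50 nM Ulight-CREBtide and 50 μM or 2 mM ATP in 50 mM HEPES pH 7.5, 1% DMSO, over a 10-point dose response.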

SMILES | IC50 [1] [µM] | IC50 [2] [µM]
COc1ccc2nc(-c3cccnc3N)n(-c3ccc(CNC(=O)c4ccc(C(=O)O)cc4C)cc3)c2c1 [Compound 102, 4-((4-(2-(2-aminopyridin-3-yl)-6-methoxy-1H-benzo[d]imidazol-1-yl)benzyl)carbamoyl)-3-methylbenzoic acid] | > 0.5 | < 0.5
COc1ccc2nc(-c3cccnc3N)n(-c3ccc(CNC(=O)c4cccc(C(=O)O)c4F)cc3)c2c1 [Compound 103, 3-((4-(2-(2-aminopyridin-3-yl)-6-methoxy-1H-benzo[d]imidazol-1-yl)benzyl)carbamoyl)-2-fluorobenzoic acid] | > 0.5 | > 0.5
COc1ccc2nc(-c3cccnc3N)n(-c3ccc(CNC(=O)c4cccc(CC(=O)O)c4)cc3)c2c1 [Compound 104, 2-(3-((4-(2-(2-aminopyridin-3-yl)-6-methoxy-1H-benzo[d]imidazol-1-yl)benzyl)carbamoyl)phenyl) acetic acid] | > 0.5 | > 0.5
Cc1cc(C(=O)O)ccc1C(=O)NCc1ccc(-n2c(-c3cccnc3N)nc3ccc(C(F)(F)F)cc32)cc1 [Compound 105, 4-((4-(2-(2-aminopyridin-3-yl)-6-(trifluoromethyl)-1H-benzo[d]imidazol-1-yl)benzyl)carbamoyl)-3-methylbenzoic acid] | > 0.5 | < 0.5
Nc1ncccc1-c1nc2ccc(C(F)(F)F)cc2n1-c1ccc(CNC(=O)c2cccc(C(=O)O)c2F)cc1 [Compound 106, 3-((4-(2-(2-aminopyridin-3-yl)-6-(trifluoromethyl)-1H-benzo[d]imidazol-1-yl)benzyl)carbamoyl)-2-fluorobenzoic acid] | > 0.5 | > 0.5
Nc1ncccc1-c1nc2ccc(C(F)(F)F)cc2n1-c1ccc(CNC(=O)c2cccc(CC(=O)O)c2)cc1 [Compound 107, 2-(3-((4-(2-(2-aminopyridin-3-yl)-6-(trifluoromethyl)-1H-benzo[d]imidazol-1-yl)benzyl)carbamoyl)phenyl) acetic acid] | > 0.5 | > 0.5
Nc1ncccc1-c1nc2ccccc2n1-c1ccc(CNC(=O)c2cccc(CC(=O)O)c2)cc1 [Compound 108, 2-(3-((4-(2-(2-aminopyridin-3-yl)-1H-benzo[d]imidazol-1-yl)benzyl)carbamoyl)phenyl) acetic acid] | > 0.5 | > 0.5

Second part, the compound after the results:

IC50 [1] [µM] | IC50 [2] [µM] | SMILES
> 0.5 | > 0.5 | NC(=O)c1cnc2c(c1)nc(-c1cccnc1N)n2-c1ccc(CNC(=O)c2cccc(CC(=O)O)c2)cc1 [Compound 97, 2-[3-[[4-[2-(2-amino-3-pyridyl)-6-carbamoyl-imidazo[4,5-b]pyridin-3-yl]phenyl]methylcarbamoyl]phenyl]acetic acid]
> 0.5 | < 0.5 | Nc1ncccc1-c1nc2cc(C(F)(F)F)cnc2n1-c1ccc(CNC(=O)c2ccc(C(=O)O)cc2)cc1 [Compound 98, 4-((4-(2-(2-aminopyridin-3-yl)-6-(trifluoromethyl)-3H-imidazo[4,5-b]pyridin-3-yl)benzyl)carbamoyl)benzoic acid]
> 0.5 | < 0.5 | Nc1ncccc1-c1nc2ccc(C(F)(F)F)nc2n1-c1ccc(CNC(=O)c2ccc(C(=O)O)cc2)cc1 [Compound 99, 4-((4-(2-(2-aminopyridin-3-yl)-5-(trifluoromethyl)-3H-imidazo[4,5-b]pyridin-3-yl)benzyl)carbamoyl)benzoic acid]
> 0.5 | > 0.5 | COC(=O)Cc1cccc(C(=O)NCc2ccc(-n3c(-c4cccnc4N)nc4cccnc43)cc2)c1 [Compound 100, methyl 2-(3-((4-(2-(2-aminopyridin-3-yl)-3H-imidazo[4,5-b]pyridin-3-yl)benzyl)carbamoyl)phenyl)acetate]
> 0.5 | > 0.5 | Nc1ncccc1-c1nc2cccnc2n1-c1ccc(CNC(=O)c2cccc(CC(=O)O)c2)cc1 [Compound 101, 2-(3-((4-(2-(2-aminopyridin-3-yl)-3H-imidazo[4,5-b]pyridin-3-yl)benzyl)carbamoyl)phenyl) acetic acid]
